Assay results as given in patent US20160213714A1, “INDUCTION OF CELLULAR SENESCENCE FOR TISSUE THERAPIES” (Everon Biosciences, Inc., priority 2015, published 2016).

Key:
[1] = test system: primary human WI-38 fibroblasts; test: Senescence induction (SA-β-Gal activity, morphology) of bleomycin-treated cells; assay type: cell-based; settings: 15 ug/ml for 72 hours; stained 7 days post-treatment
Experimental: (§1) FIG. 1: Senescence-associated beta-galactosidase (SA-β-Gal) activity of bleomycin-treated cells. A549 cancer cells (panel A) and primary human WI-38 fibroblasts (panel B) were treated for 72 hours with 50 ug/ml or 15 ug/ml of bleomycin, respectively. Cells were fixed and stained 7 days post-bleomycin treatment. Non-treated cultures, confluent at the time of staining, were used as controls.

A549 cancer cells = test: as above; assay type: cell-based; settings: 50 ug/ml for 72 hours; stained 7 days post-treatment
Experimental: as §1

## bleomycin
[1]
  cellular morphology: Enlarged cellular morphology
A549 cancer cells
  cellular morphology: Enlarged cellular morphology
